Laboratory results as given in patent US12161762B2, “Nanohelix-substrate complex for controlling macrophage behavior, preparation method thereof, and method of controlling adhesion and polarization of macrophage by using the same” (Korea University Research and Business Foundation, priority 2020, dated 2024).

System: Macrophages (RAW 264.7)
Test: Macrophage polarization on the substrate with inhibitors of ROCK, myosin II or actin polymerization
Assay type: cell-based
Settings: 50 μM Y27632, 10 blebbistatin, 2 μg/mL cytochalasin D; for M1 polarization suppression of macrophages (CD68): M1 medium, 36 hours, bimodal switching "ON" state; for stimulation of robust adhesion (cell area, elongation factor) and expression of M2 polarization (Arg-1 expression): M2 medium, inhibitor treated
Description: M1 medium used for assessment of the phenotypic polarization of macrophages was prepared by using a basal medium with 10 ng/mL each of lipopolysaccharide (LPS) and recombinant interferon-gamma (IFN-γ). M2 medium was prepared by using a basal medium with 20 ng/mL each of interleukin-4 (IL4) and interleukin-13 (IL-13). The adhesion-assisted M2 phenotypic polarization of the macrophages was assessed with inhibitors of ROCK (50 μM Y27632), myosin II (10 blebbistatin), or actin polymerization (2 μg/mL of cytochalasin D).
An upper part of FIG. 19 is a confocal immunofluorescent image of CD68, F-actin, and nuclei in macrophages cultured in an M1 polarization medium with and without an inhibitor for ROCK (Y27632), myosin II (blebbistatin), or actin polymerization (cytochalasin D) for 36 hours against and a graph illustrating a cell area, a cell elongation factor, and CD68 fluorescence intensity calculated based on a confocal immunofluorescent experiment result, and a lower part of FIG. 19 is a confocal immunofluorescent image of Arg-1, and F-actin, and nuclei in macrophages cultured in an M2 polarization medium with and without an inhibitor for ROCK (Y27632), myosin II (blebbistatin), or actin polymerization (cytochalasin D) and a graph illustrating a cell area, a cell elongation factor, and Arg-1 fluorescence intensity calculated based on the confocal immunofluorescent experiment result, and a scale bar represents 20 μm.

| SMILES | M1 polarization suppression of macrophages (CD68) | stimulation of robust adhesion (cell area, elongation factor) and expression of M2 polarization (Arg-1 expression) |
| --- | --- | --- |
| C[C@@H](N)[C@H]1CC[C@H](C(=O)Nc2ccncc2)CC1 [Example Y27632, Y27632] | continuously hindered | hindered |
| Cc1ccc2c(c1)C(=O)C1(O)CCN(c3ccccc3)C1=N2 (stereo not drawn) [blebbistatin] | continuously hindered | hindered |
| C=C1[C@@H](C)[C@H]2[C@H](Cc3ccccc3)NC(=O)[C@]23[C@H](OC(C)=O)/C=C/[C@@](C)(O)C(=O)[C@@H](C)C/C=C/[C@H]3[C@@H]1O [cytochalasin D] | continuously hindered | hindered |
